Laboratory results taken from US9181232B2, “Difluoro-hexahydro-cyclopentaoxazinyls and difluoro-hexahydro-benzooxazinyls as BACE1 inhibitors” (Hoffmann-La Roche Inc., priority 2012, dated 2015).

Test: Detection of glutathione conjugates
Format: in vitro ADME, human
Parameters: key: NF = in vitro no significant adduct formation relative to control
Conditions: in vitro, relative to control
Text: The assay conditions for the detection of glutathione conjugates follow the procedure described by C. M. Dieckhaus et al.^13

| GSH human (glutathione adduct formation) | Structure (SMILES) |
| --- | --- |
| NF | C[C@]1(c2cc(NC(=O)c3ccc(C#N)cn3)ccc2F)N=C(N)O[C@@H]2CCCC(F)(F)[C@@H]21 [Example 8, 5-Cyano-pyridine-2-carboxylic acid [3-((4S,4aR,8aR)-2-amino-5,5-difluoro-4-methyl-4a,5,6,7,8,8a-hexahydro-4H-benzo[e][1,3]oxazin-4-yl)-4-fluoro-phenyl]-amide] |
| NF | C[C@]1(c2cc(NC(=O)c3ccc(C#N)cn3)ccc2F)N=C(N)O[C@@H]2CCC(F)(F)[C@@H]21 [Example 2, 5-Cyano-pyridine-2-carboxylic acid [3-((4S,4aR,7aR)-2-amino-5,5-difluoro-4-methyl-4,4a,5,6,7,7a-hexahydro-cyclopenta[e][1,3]oxazin-4-yl)-4-fluoro-phenyl]-amide] |
